# Source: PubChem BioAssay (NCI)
#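 Exposure lasted 48 hours, with cells grown in 96-well plates and compounds tested at five concentrations. At the TGI there is no net growth.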
# Legend:
# Experiment in all cases: inhibition of tumour cell growth, NCI panel, 48 h
# OVCAR-3 ovarian = tested on: OVCAR-3 ovarian
# PC-3 prostate = tested on: PC-3 prostate
# M14 melanoma = tested on: M14 melanoma
# NCI-H522 lung = tested on: NCI-H522 lung
# TK-10 renal = tested on: TK-10 renal
# T-47D breast = tested on: T-47D breast
# HOP-62 NSCLC = tested on: HOP-62 NSCLC
# HL-60(TB) leukemia = tested on: HL-60(TB) leukemia
# NCI-H460 lung = tested on: NCI-H460 lung
# CCRF-CEM leukemia = tested on: CCRF-CEM leukemia
# SK-OV-3 ovarian = tested on: SK-OV-3 ovarian
# UACC-257 melanoma = tested on: UACC-257 melanoma
# MDA-MB-231 breast = tested on: MDA-MB-231 breast
# NCI-H23 lung = tested on: NCI-H23 lung
# CAKI-1 renal = tested on: CAKI-1 renal
# SF-539 CNS = tested on: SF-539 CNS
# MCF7 breast = tested on: MCF7 breast
# OVCAR-5 ovarian = tested on: OVCAR-5 ovarian
# RXF 393 renal = tested on: RXF 393 renal
SMILES,TGI (OVCAR-3 ovarian) [µM],TGI (PC-3 prostate) [µM],TGI (M14 melanoma) [µM],TGI (NCI-H522 lung) [µM],TGI (TK-10 renal) [µM],TGI (T-47D breast) [µM],TGI (HOP-62 NSCLC) [µM],TGI (HL-60(TB) leukemia) [µM],TGI (NCI-H460 lung) [µM],TGI (CCRF-CEM leukemia) [µM],TGI (SK-OV-3 ovarian) [µM],TGI (UACC-257 melanoma) [µM],TGI (MDA-MB-231 breast) [µM],TGI (NCI-H23 lung) [µM],TGI (CAKI-1 renal) [µM],TGI (SF-539 CNS) [µM],TGI (MCF7 breast) [µM],TGI (OVCAR-5 ovarian) [µM],TGI (RXF 393 renal) [µM]
COc1cc(C(C)=O)cc(C(=O)N(C(C)C)C(C)C)c1[Si](C)(C)C,> 100,> 100,> 100,> 100,> 100,> 100,> 100,> 100,> 100,> 100,99.2,> 100,> 100,> 100,> 100,> 100,> 100,,
[N-]=[N+]=NC1C(O)C(CO)OC1n1ccc(=O)[nH]c1=O (stereo not drawn),> 875,> 875,> 875,> 875,> 875,> 875,> 875,> 875,> 875,> 875,> 875,> 875,> 875,> 875,> 875,> 875,> 875,> 875,
CN(C)c1ccc(/C=N\NC(=O)Nc2cccc3ccccc23)cc1,,35.5,> 100,14,36.7,19.8,33.1,7.03,31.8,> 100,,34.6,32.9,76,27.9,21.5,33,> 100,> 100
CC(=O)N(CCc1ccccc1)C(C#N)c1ccccc1 (stereo not drawn),> 100,> 100,> 100,> 100,> 100,> 100,> 100,> 100,,> 100,> 100,> 100,> 100,> 100,> 100,> 100,> 100,> 100,> 100
Cc1nn(C(=O)Cc2ccccc2)c2c1C(c1ccc(Cl)cc1)SC(N)=N2 (stereo not drawn),,> 100,> 100,> 100,> 100,> 100,> 100,> 100,> 100,> 100,> 100,> 100,> 100,> 100,> 100,> 100,> 100,,
O=C1c2cccc3cccc(c23)C2NCCCN12 (stereo not drawn),> 100,> 100,> 100,80.4,> 100,> 100,> 100,> 100,> 100,> 100,> 100,> 100,> 100,> 100,> 100,,> 100,> 100,> 100
C#CC(C)(C)OC(=O)C(=[N+]=[N-])C(C)=O,> 10,> 10,> 10,,> 10,> 10,> 10,> 10,> 10,> 10,> 10,> 10,> 10,> 10,,> 10,> 10,> 10,> 10
COC(=O)c1ccccc1Nc1nc(-c2cccs2)nc2cc(OC)c(OC)cc12,72.2,> 100,> 100,> 100,70.2,> 100,42.1,> 100,> 100,,> 100,> 100,> 100,> 100,> 100,85.9,> 100,> 100,> 100
CCCCSC1=N/C(=C\c2ccco2)C(Cl)=N1,> 100,> 100,> 100,> 100,> 100,> 100,> 100,> 100,> 100,> 100,> 100,> 100,> 100,> 100,> 100,,> 100,> 100,> 100
CCOC(=O)c1c(NC(=O)OC)c(C#N)c2n1CCCCC2,,> 100,> 100,,> 100,> 100,> 100,> 100,> 100,> 100,> 100,> 100,91.7,> 100,> 100,> 100,> 100,,> 100
C=C(C(=O)O)[C@@H]1C[C@@H](OC(C)=O)[C@]2(C)CC/C=C(\C)CCC[C@H](C)[C@H](O)[C@@H]1O2,> 100,> 100,> 100,48.4,> 100,> 100,,57.4,> 100,73.4,> 100,> 100,> 100,,> 100,35.7,> 100,> 100,65.9
O=C1NC(=O)C(c2c[nH]c3ccccc23)=C1c1cn(C(c2ccccc2)(c2ccccc2)c2ccccc2)cn1,19.6,7.24,16.3,22.9,36.5,23.7,,20.4,14.6,17.4,57,26.6,25.7,30.8,> 100,35.8,17.7,23.1,36.1
Cc1nc2ccc(NC(=S)Nc3ccccc3)cc2c(=O)n1-c1ccccc1,> 100,> 100,,> 100,> 100,> 100,> 100,> 100,> 100,,,> 100,> 100,> 100,> 100,,> 100,> 100,> 100
